These results are taken from publication PMC5694373 (European journal of pharmaceutical sciences : official …, 2017).

The conditions of data set [1]: cited from earlier work; for human half-life: reported human half-life simulated in the HFIM.
Data set [2] deals with wild-type MX/09 influenza. The format is cell-based. As to conditions: oseltamivir 75 mg Q12 and/or zanamivir 600 mg Q12 exposures, alone or in combination, throughout the study.

Read-outs that look alike come from different tables or passages of the source.

For `CC(=O)N[C@H]1[C@H]([C@H](O)[C@H](O)CO)OC(C(=O)O)=C[C@@H]1N=C(N)N` [Zanamivir, zanamivir], in data set [1] (ref GlaxoSmithKline, 2009), the oral bioavailability result was “poor oral bioavailability” and the human half-life is 2.5 h.

With Oseltamivir carboxylate, the “effect on viral replication relative to no-treatment control” value in data set [2] is reported as “suppressed the replication of MX/09”. Also, in data set [1] (ref Doucette and Aoki, 2001), the human half-life is on record as 8 h.
